The assay concerns inflammatory arthritis in wild type (WT) mice. Nature of the assay: K/BxN serum inflammatory arthritis in wild type mice treated with MTX. It is filed as in vivo. The protocol: Inflammatory arthritis was initiated in wild type (WT) and Alox15^−/− deficient mice by the administration of arthritogenic serum on days 0 and 2. […] Disease severity was assessed by measuring (A) disease activity using a 26-point clinical score (B) body weight and (C) paw edema. (D) Eight days post disease initiation joints were collected, leukocytes were liberated and the number of infiltrated leukocytes was determined using flow cytometry and fluorescently labelled antibodies. Results for A-C are mean±SEM and for D are percentage of vehicle n=7 mice per group. Results for D are representative of n=8 mice per group. Experiments were conducted on two distinct occasions. * p<0.05 vs Vehicle group for A-C using two-way ANOVA, for D using one-sample t test.
Inflammatory arthritis was initiated in wild type (WT) and Alox15^−/− mice by injecting K/BxN serum via intraperitoneal injection on days 0 and 2. […] Blood and joints were collected on day 8 and the concentrations of inflammatory eicosanoids in (A) plasma and (B) joints were determined using LC-MS/MS profiling.
Plasma was obtained from peripheral blood of healthy volunteers, patients and mouse following centrifugation at 1500×g for 10 min at room temperature. Paws were collected and immediately transferred to liquid nitrogen prior to homogenization in 1 ml ice cold MeOH and homogenized using a glass dounce. All samples for LC-MS/MS-based profiling were extracted using solid-phase extraction columns as in Walker, M. E., Souza, P. R., Colas, R. A. & Dalli, J. “13-Series resolvins mediate the leukocyte-platelet actions of atorvastatin and pravastatin in inflammatory arthritis.” FASEB J 31, 3636-3648 (2017), the contents of which are incorporated herein by reference. Prior to sample extraction, deuterated internal standards, representing each region in the chromatographic analysis (500 pg each) were added to facilitate quantification. Samples were kept at −20° C. for a minimum of 45 min to allow protein precipitation. Supernatants were subjected to solid phase extraction, methyl formate fraction collected, brought to dryness and suspended in phase (methanol/water, 1:1, vol/vol) for injection on a Shimadzu LC-20AD HPLC and a Shimadzu SIL-20AC autoinjector, paired with a QTrap 5500 or QTrap 6500 plus (Sciex). An Agilent Poroshell 120 EC-C18 column (100 mm×4.6 mm×2.7 μm) was kept at 50° C. and mediators eluted using a mobile phase consisting of methanol/water/acetic acid of 20:80:0.01 (vol/vol/vol) that was ramped to 50:50:0.01 (vol/vol/vol) over 0.5 min and then to 80:20:0.01 (vol/vol/vol) from 2 min to 11 min, maintained till 14.5 min and then rapidly ramped to 98:2:0.01 (vol/vol/vol) for the next 0.1 min. This was subsequently maintained at 98:2:0.01 (vol/vol/vol) for 5.4 min, and the flow rate was maintained at 0.5 ml/min. QTrap 5500 or QTrap 6500 plus were operated using a multiple reaction monitoring method as in Walker, M. E., Souza, P. R., Colas, R. A. & Dalli, J. “13-Series resolvins mediate the leukocyte-platelet actions of atorvastatin and pravastatin in inflammatory arthritis.” FASEB J 31, 3636-3648 (2017), the contents of which are incorporated herein by reference. […]

[1] abbreviates: MTX 25 mg/kg i.p. days 3, 5 and 7.

“Also recorded” adds a separate entry of the source.

Take `CN(Cc1cnc2nc(N)nc(N)c2n1)c1ccc(C(=O)N[C@@H](CCC(=O)O)C(=O)O)cc1` [MTX, Methotrexate]: under setting [1], the paw edema entry is reported as “decrease” and the weight loss entry is “improvement”. Further, the clinical scores entry (MTX 25 mg/kg i.p. days 3, 5 and 7, 26-point score) is “significant reduction”. Moreover, for the setting “day 8, flow cytometry”, the “number of eosinophils, neutrophils, monocytes and macrophages recruited to the joint” value is recorded as “decrease”. Moreover, the inflammatory eicosanoid concentrations entry (plasma and joints, day 8, LC-MS/MS) was “regulates; also recorded: reduction”.

These data come from patent publication US12681015B2, “Methods for predicting patient response to DMARDs” (Queen Mary University of London, priority 2019, dated 2026).
